According to US7205305B2, “Inhibitors of p38” (Vertex Pharmaceuticals Incorporated, priority 1996, dated 2007):

Tests used:
[1] = test system: TNF production in LPS-stimulated PBMCs; experiment: Inhibition of TNF production in LPS-stimulated PBMCs ("cell"); format: cell-based, human; conditions: Homo sapiens, PBMC
Protocol: (§1) Inhibitors were serially diluted in DMSO from a 20 mM stock. At least 6 serial dilutions were prepared. Then 4× inhibitor stocks were prepared by adding 4 μl of an inhibitor dilution to 1 ml of RPMI1640 medium/10% fetal bovine serum. The 4× inhibitor stocks contained inhibitor at concentrations of 80 μM, 32 μM, 12.8 μM, 5.12 μM, 2.048 μM, 0.819 μM, 0.328 μM, 0.131 μM, 0.052 μM, 0.021 μM etc. The 4× inhibitor stocks were pre-warmed at 37° C. until use.
(§2) Fresh human blood buffy cells were separated from other cells in a Vacutainer CPT from Becton & Dickinson (containing 4 ml blood and enough DPBS without Mg^2+/Ca^2+ to fill the tube) by centrifugation at 1500×g for 15 min. Peripheral blood mononuclear cells (PBMCs), located on top of the gradient in the Vacutainer, were removed and washed twice with RPMI1640 medium/10% fetal bovine serum. PBMCs were collected by centrifugation at 500×g for 10 min. The total cell number was determined using a Neubauer Cell Chamber and the cells were adjusted to a concentration of 4.8×10^6 cells/ml in cell culture medium (RPMI1640 supplemented with 10% fetal bovine serum).
(§3) We placed 100 μl of cell suspension or whole blood in each well of a 96-well cell culture plate. Then we added 50 μl of the 4× inhibitor stock to the cells. Finally, we added 50 μl of a lipopolysaccharide (LPS) working stock solution (16 ng/ml in cell culture medium) to give a final concentration of 4 ng/ml LPS in the assay. The total assay volume of the vehicle control was also adjusted to 200 μl by adding 50 μl cell culture medium. The PBMC cells or whole blood were then incubated overnight (for 12–15 hours) at 37° C./5% CO2 in a humidified atmosphere.
(§4) The next day the cells were mixed on a shaker for 3–5 minutes before centrifugation at 500×g for 5 minutes. Cell culture supernatants were harvested and analyzed by ELISA for levels of IL-1b (R & D Systems, Quantikine kits, #DBL50), TNF-α (BioSource, #KHC3012), IL-6 (Endogen, #EH2-IL6) and IL-8 (Endogen, #EH2-IL8) according to the instructions of the manufacturer. The ELISA data were used to generate dose-response curves from which IC50 values were derived.

[2] = test system: IL-1 production in LPS-stimulated PBMCs; experiment: Inhibition of IL-1 production in LPS-stimulated PBMCs ("cell"); format: cell-based, human; conditions: Homo sapiens, PBMC
Protocol: as §1, §2, §3, §4

activated p38 = activated p38 (Homo sapiens, UniProt Q16539); experiment: Inhibition of phosphorylation of EGF receptor peptide ("kinase"); format: biochemical; conditions: inhibition of phosphorylation of EGF receptor peptide by activated p38
Protocol: This assay was carried out in the presence of 10 mM MgCl2, 25 mM β-glycerophosphate, 10% glycerol and 100 mM HEPES buffer at pH 7.6. […] The stock solution was aliquotted into vials. A fixed volume of DMSO or inhibitor in DMSO (final concentration of DMSO in reaction was 5%) was introduced to each vial, mixed and incubated for 15 minutes at room temperature. EGF receptor peptide, […], a phosphoryl acceptor in p38-catalyzed kinase reaction (1), was added to each vial to a final concentration of 200 μM. The kinase reaction was initiated with ATP (100 μM) and the vials were incubated at 30° C. After 30 minutes, the reactions were quenched with equal volume of 10% trifluoroacetic acid (TFA).
The phosphorylated peptide was quantified by HPLC analysis. Separation of phosphorylated peptide from the unphosphorylated peptide was achieved on a reverse phase column (Deltapak, 5 μm, C18 100D, part no. 011795) with a binary gradient of water and acteonitrile, each containing 0.1% TFA.

[3] = test system: IL-1 production in whole blood; experiment: Inhibition of IL-1 production in LPS-stimulated whole blood ("WB"); format: cell-based, human; conditions: Homo sapiens
Protocol: as §1
Alternatively, whole blood containing an anti-coagulant was used directly in the assay.
as §3, §4

Chain of activated p38 (Q16539 whole entry): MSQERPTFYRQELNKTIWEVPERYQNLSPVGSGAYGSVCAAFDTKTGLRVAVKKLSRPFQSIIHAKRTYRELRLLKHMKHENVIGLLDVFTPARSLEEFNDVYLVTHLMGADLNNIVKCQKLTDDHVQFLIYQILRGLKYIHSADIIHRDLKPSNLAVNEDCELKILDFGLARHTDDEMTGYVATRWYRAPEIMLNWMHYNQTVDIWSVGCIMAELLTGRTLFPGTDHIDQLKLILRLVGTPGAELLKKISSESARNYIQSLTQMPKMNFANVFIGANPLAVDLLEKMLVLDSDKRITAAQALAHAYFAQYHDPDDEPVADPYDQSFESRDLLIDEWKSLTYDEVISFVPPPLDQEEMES

Row | Structure (SMILES) | IC50 [1] [nM] | IC50 [2] [nM] | IC50 (activated p38) [nM] | IC50 [3] [nM]
1 | CN(C)C(=O)c1ccccc1Sc1ccc2c(-c3c(Cl)cccc3Cl)c(=O)ncn2n1 [Compound 31] | ≥ 500 | ≥ 500 | ≥ 1000 | –
2 | COc1ccccc1-c1cccc(C(C(N)=O)c2c(Cl)cccc2Cl)n1 (stereo not shown) [Compound 324] | ≥ 500 | 100 to 500 | 100 to 1000 | –
3 | O=c1ncn2nc(Sc3cccc(F)c3)ccc2c1-c1c(Cl)cccc1Cl [Compound 21] | ≥ 500 | 100 to 500 | 100 to 1000 | –
4 | COc1ccccc1-c1c(=O)ncn2nc(Sc3ccccc3)ccc12 [Compound 11] | ≥ 500 | ≥ 500 | ≥ 1000 | –
5 | COc1cccc(-c2cccc(C(C(N)=O)c3c(Cl)cccc3Cl)n2)c1 (stereo not shown) [Compound 322] | ≥ 500 | ≥ 500 | 100 to 1000 | –
6 | O=c1ncn2nc(Sc3ccccc3)ccc2c1-c1c(F)cccc1F [Compound 17] | ≥ 500 | ≥ 500 | ≥ 1000 | –
7 | NC(=O)C(c1cccc(-c2cccc(C(F)(F)F)c2)n1)c1c(F)cccc1Cl (stereo not shown) [Compound 353] | ≥ 500 | ≥ 500 | 100 to 1000 | –
8 | N=C(N)Nc1cc(F)c(F)cc1SC1=NN2CNC(=O)C(c3c(Cl)cccc3Cl)=C2C=C1 [Compound 124] | ≥ 500 | ≥ 500 | ≥ 1000 | –
9 | NC(=O)C(c1cccc(-c2ccc(F)c(Cl)c2)n1)c1c(F)cccc1Cl (stereo not shown) [Compound 333] | ≥ 500 | ≥ 500 | 100 to 1000 | –
10 | CN(C)/C=N\c1ccc(-c2c(=O)ncn3nc(Sc4ccc(F)cc4Cl)ccc23)c(Cl)c1 [Compound 48] | ≥ 500 | 100 to 500 | 100 to 1000 | –
11 | O=C1NCN2C=C(Sc3ccc(F)cc3)C=CC2=C1c1c(Cl)cccc1Cl [Compound 111] | ≥ 500 | ≥ 500 | 100 to 1000 | –
12 | O=c1ncn2nc(Sc3ccccn3)ccc2c1-c1c(Cl)cccc1Cl [Compound 30] | ≥ 500 | ≥ 500 | ≥ 1000 | ≥ 500
13 | NC(=O)C(c1cccc(-c2ccccc2CNCCO)n1)c1c(Cl)cccc1Cl (stereo not shown) [Compound 351] | ≥ 500 | ≥ 500 | ≥ 1000 | –
14 | Cc1ccccc1-c1cccc(N(C(N)=O)c2c(C)cccc2C)n1 [Compound 405] | 100 to 500 | ≤ 100 | ≤ 100 | –
15 | NC(=O)C(c1cccc(-c2ccc(Cl)cc2)n1)c1c(Cl)cccc1Cl (stereo not shown) [Compound 310] | ≥ 500 | ≥ 500 | 100 to 1000 | –
16 | Cc1ccc(-c2cccc(C(C(N)=O)c3c(Cl)cccc3Cl)n2)cc1 (stereo not shown) [Compound 311] | ≥ 500 | ≥ 500 | 100 to 1000 | –
17 | Cc1cc(Cl)ccc1Sc1ccc2c(-c3c(Cl)cccc3Cl)c(=O)ncn2n1 [Compound 28] | 100 to 500 | 100 to 500 | 100 to 1000 | –
18 | Nc1ccc(-c2c(=O)ncn3nc(Sc4ccc(F)cc4)ccc23)c(Cl)c1 [Compound 46] | ≥ 500 | ≥ 500 | 100 to 1000 | –
19 | NC(=O)N(c1cccc(-c2ccc(Cl)cc2)n1)c1c(Cl)cccc1Cl [Compound 408] | 100 to 500 | ≤ 100 | ≤ 100 | –
20 | Cc1ccccc1-c1c(=O)ncn2nc(Sc3ccccc3)ccc12 [Compound 8] | ≥ 500 | ≥ 500 | ≥ 1000 | –
21 | O=c1ncn2nc(Sc3ccccc3)ccc2c1-c1ccc(Cl)c(Cl)c1 [Compound 9] | ≥ 500 | ≥ 500 | ≥ 1000 | –
22 | Cc1c(Sc2ccccc2)nn2cnc(=O)c(-c3c(Cl)cccc3Cl)c2c1C [Compound 13] | ≥ 500 | ≥ 500 | ≥ 1000 | –
